According to US20080300225A1, “PESTICIDAL FORMULATION CONTAINING OXYMATRINE OR MATRINE” (Marrone Organic Innovations, priority 2007, published 2008):
“And” between values parts separate entries of the source, which are not always exact repeats. Identical values can stand only once. Like-named read-outs stand apart in the source and are kept apart here.

Tested on: Armyworms (Spodoptera exigua)
Assay: Contact study on armyworm first instar larvae
Format: in vivo
Conditions: for mode of insecticidal action: contact exposure of first instar larvae
Description: Contact Study of MOI 201 on Armyworms (Spodoptera exigua)
Objective: Observe the mode of action and the symptoms caused by 0.6% oxymatrine on larvae of armyworms, as well as to quantify the time required for the larvae to become paralyzed or dead.
Method: Larvae of beet armyworm were taken as first In-star stage and placed on a microscope slide under a stereomicroscope. A drop of the test product was delivered over them and the larvae were left to soak for 30 seconds. Excess liquid was absorbed with a paper towel and the larvae were observed under the microscope. The products tested were Spinosad at 0.3%, Permethrin at 1%, and 0.6% oxymatrine at 800× and 1000× dilutions. Time 1 indicates the time it took before the larva was unable to perform normal activities like crawling, feeding, etc. Time 2 is the additional time needed for complete elimination/death.

[1] = Spinosad at 0.3%, Permethrin at 1%, 30 s soak, average of 5 reps
[2] = Spinosad at 0.3%, Permethrin at 1%, 30 s soak, reps 1-5

CC1(C)C(C=C(Cl)Cl)C1C(=O)OCc1cccc(Oc2ccccc2)c1 (centres unmarked) [Permethrin]
Time 1: time required for paralysis or convulsions, Average: 1.22 min
period of time to affect the insect's basic functions: 1.2 min
Time 2: time between paralysis and death, Average [1]: 333.60 min
Time 2: time between paralysis and death, single replicate [2]: 447 min and 428 min and 397 min and 97 min and 299 min
mode of insecticidal action: work as contact insecticides

Spinosad
Time 1: time required for paralysis or convulsions, Average [1]: 6.99 min
Time 2: time between paralysis and death, Average [1]: 289.00 min
Time 1: time required for paralysis or convulsions, single replicate [2]: 7.58 min and 8.46 min and 6.33 min and 6.4 min and 6.17 min
Time 2: time between paralysis and death, single replicate [2]: 146 min and 180 min and 363 min and 373 min and 383 min
mode of insecticidal action: work as contact insecticides
period of time to affect the insect's basic functions (text summary of Time 1, Spinosad 0.3%, Permethrin 1%, 0.6% oxymatrine at 800x and 1000x dilutions): 7.0 min
